Experimental data: US10294202B2, “Pyrrolidinones as herbicides” (FMC Corporation, priority 2013, dated 2019)

Columns and labels:
crabgrass, large = assay: Test C pre-/postemergence herbicide test; format: in vivo, Digitaria sanguinalis; settings: Preemergence; for Crabgrass, Large plant response rating: 31 g ai/ha
Summary of the method: (§1)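 Visual rating, 0 (no effect) to 100 (complete control), versus untreated controls after 13 to 15 days in the greenhouse. Pre: seeds in loam/sand, sprayed at planting. Post: 1- to 4-leaf plants (2 to 18 cm) in peat-based mix. Compounds in non-phytotoxic solvent plus surfactant.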

corn = assay: Test A pre-/postemergence herbicide test; format: in vivo, Zea mays
Summary of the method: (§2)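 Seeds sown in loam soil/sand blend received a preemergence directed soil spray of test chemical in non-phytotoxic solvent with surfactant; postemergence plants (2–10 cm, one- to two-leaf stage) were sprayed with the same formulation. After about 10 days in greenhouse, injury was rated visually versus untreated controls, 0 (no effect) to 100 (complete control).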

giant foxtail = assay: Test A pre-/postemergence herbicide test; format: in vivo, Setaria faberii
Summary of the method: as §2

barnyardgrass [1] = assay: Test B flooded paddy test; format: in vivo, Echinochloa crus-galli; settings: 250 g ai/ha, Flood; scale of 0 to 100 where 0 is no effect and 100 is complete control
Summary of the method: (§3)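 Scored visually 0–100 (0 no effect, 100 complete control) versus controls after 13 to 15 greenhouse days. Treatment: compound added to paddy water kept 3 cm above soil, on 2-leaf-stage plants.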

ducksalad = assay: Test B flooded paddy test; format: in vivo, Heteranthera limosa; settings: 250 g ai/ha, Flood; scale of 0 to 100 where 0 is no effect and 100 is complete control
Summary of the method: as §3

morningglory = assay: Test C pre-/postemergence herbicide test; format: in vivo, Ipomoea coccinea; settings: Preemergence
Summary of the method: as §1

soybean = assay: Test C pre-/postemergence herbicide test; format: in vivo, Glycine max; settings: Preemergence
Summary of the method: as §1

ragweed = assay: Test C pre-/postemergence herbicide test; format: in vivo, Ambrosia elatior; settings: Preemergence
Summary of the method: as §1

barnyardgrass [2] = assay: Test A pre-/postemergence herbicide test; format: in vivo, Echinochloa crus-galli
Summary of the method: as §2

blackgrass = assay: Test C pre-/postemergence herbicide test; format: in vivo, Alopecurus myosuroides; settings: Preemergence; for Blackgrass plant response rating: 31 g ai/ha
Summary of the method: as §1

rice = assay: Test B flooded paddy test; format: in vivo, Oryza sativa; settings: 250 g ai/ha, Flood; scale of 0 to 100 where 0 is no effect and 100 is complete control
Summary of the method: as §3

sedge, umbrella = assay: Test B flooded paddy test; format: in vivo, Cyperus difformis; settings: 250 g ai/ha, Flood; scale of 0 to 100 where 0 is no effect and 100 is complete control
Summary of the method: as §3

[3] = scale 0 to 100, 0 is no effect and 100 is complete control
[4] = 125 g ai/ha, scale 0 to 100 (0 no effect, 100 complete control)
[5] = 250 g ai/ha, scale 0 to 100 (0 no effect, 100 complete control)
[6] = Postemergence, 125 g ai/ha, 0 to 100 scale, 0 no effect, 100 complete control
[7] = Postemergence, 500 g ai/ha, 0 to 100 scale (0 no effect, 100 complete control)
[8] = Preemergence, 125 g ai/ha, visual rating on 0 to 100 scale (0 no effect, 100 complete control)
[9] = preemergence, 500 g ai/ha, 0 to 100 scale
[10] = 31 g ai/ha, scale 0 to 100, 0 is no effect and 100 is complete control
[11] = preemergence, 500 g ai/ha, 0 to 100 scale (0 no effect, 100 complete control)
[12] = scale 0 to 100 (0 no effect, 100 complete control)
[13] = Postemergence, 1000 g ai/ha, 0 to 100 scale (0 no effect, 100 complete control)
[14] = Preemergence, 1000 g ai/ha, visual rating on 0 to 100 scale (0 no effect, 100 complete control), approx. 10 days

Row | Compound | Plant response rating, Crabgrass, Large (crabgrass, large; 62 g ai/ha, scale 0 to 100) | Plant response rating, Crabgrass, Large (crabgrass, large; [4]) | Plant response rating, Crabgrass, Large (crabgrass, large; [5]) | Plant response rating, Corn (corn; [6]) | Plant response rating, Corn (corn; [7]) | Corn plant response rating (corn; [8]) | Plant response rating, Corn (corn; [9]) | Plant response rating, Foxtail, Giant (giant foxtail; [6]) | Plant response rating, Barnyardgrass (barnyardgrass [1]) | Plant response rating, Ducksalad (ducksalad) | Plant response rating, Morningglory (morningglory; 62 g ai/ha, scale 0 to 100) | Plant response rating, Morningglory (morningglory; [4]) | Plant response rating, Soybean (soybean; [4]) | Plant response rating, Ragweed (ragweed; 62 g ai/ha, scale 0 to 100) | Plant response rating, Ragweed (ragweed; [4]) | Plant response rating, Blackgrass (blackgrass; 62 g ai/ha, scale 0 to 100) | Plant response rating, Blackgrass (blackgrass; [4]) | Plant response rating, Blackgrass (blackgrass; [5]) | Plant response rating, Rice (rice) | Plant response rating, Sedge, Umbrella (sedge, umbrella) | further results
1 | O=C1NCC(c2cccc(OC(F)(F)F)c2)C1C(=O)Nc1cccc(F)c1F (centres unmarked) [Compound 68] | 90 | 95 | 95 | 20 | 90 | 0 | 0 | 80 | 40 | 90 | 0 | 15 | 10 | 0 | 0 | 60 | 60 | 80 | 25 | 70 | Crabgrass, Large plant response rating (crabgrass, large; [3]): 90; Plant response rating, Foxtail, Giant (giant foxtail; [7]): 80; Foxtail, Giant plant response rating (giant foxtail; [8]): 90; Plant response rating, Foxtail, Giant (giant foxtail; [9]): 90; Morningglory plant response rating (morningglory; [10]): 0; Soybean plant response rating (soybean; [10]): 0; Plant response rating, Soybean (soybean; 62 g ai/ha, scale 0 to 100): 0; Ragweed plant response rating (ragweed; [10]): 0; Plant response rating, Barnyardgrass (barnyardgrass [2]; [6]): 70; Plant response rating, Barnyardgrass (barnyardgrass [2]; [7]): 80; Barnyardgrass plant response rating (barnyardgrass [2]; [8]): 80; Plant response rating, Barnyardgrass (barnyardgrass [2]; [11]): 90; Blackgrass plant response rating (blackgrass; [3]): 0
2 | O=C1NCC(c2ccc(F)c(Cl)c2)C1C(=O)Nc1cccc(F)c1F (centres unmarked) [Compound 59] | 85 | 90 | 100 | 0 | 30 | 0 | 0 | 80 | 40 | 75 | 0 | 15 | 20 | 0 | 0 | 0 | 30 | 60 | 20 | 60 | Crabgrass, Large plant response rating (crabgrass, large; [12]): 85; Plant response rating, Foxtail, Giant (giant foxtail; [7]): 80; Foxtail, Giant plant response rating (giant foxtail; [8]): 80; Plant response rating, Foxtail, Giant (giant foxtail; [9]): 90; Plant response rating, Soybean (soybean; 62 g ai/ha, scale 0 to 100): 15; Plant response rating, Barnyardgrass (barnyardgrass [2]; [6]): 70; Plant response rating, Barnyardgrass (barnyardgrass [2]; [7]): 90; Barnyardgrass plant response rating (barnyardgrass [2]; [8]): 80; Plant response rating, Barnyardgrass (barnyardgrass [2]; [11]): 90; Blackgrass plant response rating (blackgrass; [12]): 0
3 | O=C1NCC(c2cc(F)c(F)c(F)c2)C1C(=O)Nc1ccccc1C(F)(F)F (racemic) [Compound 33] | 98 | 100 | 100 | – | – | – | – | – | 0 | 100 | 0 | 0 | 0 | 0 | 0 | 0 | 0 | 5 | 0 | 0 | Crabgrass, Large plant response rating (crabgrass, large; [12]): 95; Plant response rating, Corn (corn; [13]): 40; Plant response rating, Corn (corn; [14]): 0; Plant response rating, Foxtail, Giant (giant foxtail; [13]): 90; Plant response rating, Foxtail, Giant (giant foxtail; [14]): 90; Plant response rating, Barnyardgrass (barnyardgrass [2]; [13]): 90; Plant response rating, Barnyardgrass (barnyardgrass [2]; [14]): 90; Blackgrass plant response rating (blackgrass; [12]): 0
